Experimental data reported in PubChem BioAssay (NCI).
Where “and” joins values, the source holds several entries; their conditions need not be identical. Equal values may be shown once.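 These data come from cells grown in 96-well plates and exposed to compound for 48 hours at five concentrations. Abbreviation: GI50, concentration required for 50% inhibition of growth. TGI: concentration producing complete growth inhibition.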

Tests used:
Assay in all cases: inhibition of tumour cell growth, NCI panel, 48 h
SF-268 CNS = tested on: SF-268 CNS
COLO 205 colon = tested on: COLO 205 colon
KM12 colon = tested on: KM12 colon
SF-539 CNS = tested on: SF-539 CNS
EKVX NSCLC = tested on: EKVX NSCLC
IGROV1 ovarian = tested on: IGROV1 ovarian
M14 melanoma = tested on: M14 melanoma
RXF 393 renal = tested on: RXF 393 renal
LOX IMVI melanoma = tested on: LOX IMVI melanoma
UACC-257 melanoma = tested on: UACC-257 melanoma

Row | Compound | GI50 (SF-268 CNS) | GI50 (COLO 205 colon) | TGI (COLO 205 colon) | GI50 (KM12 colon) | TGI (KM12 colon) | GI50 (SF-539 CNS) | TGI (SF-539 CNS) | TGI (EKVX NSCLC) | GI50 (IGROV1 ovarian) | TGI (IGROV1 ovarian) | GI50 (M14 melanoma) | TGI (M14 melanoma) | TGI (RXF 393 renal) | GI50 (LOX IMVI melanoma) | TGI (LOX IMVI melanoma) | GI50 (UACC-257 melanoma) | TGI (UACC-257 melanoma) | TGI (SF-268 CNS) | GI50 (EKVX NSCLC) | GI50 (RXF 393 renal)
1 | CC1=C(N2CC2)C(=O)C(CO)=C(N2CC2)C1=O | 0.00666 µM | 0.135 µM and 0.084 µM | 0.29 µM and 0.23 µM | 0.0356 µM | 0.337 µM | 0.00301 µM | 0.019 µM and 0.0593 µM | 0.99 µM | 0.0168 µM | 0.0703 µM and 0.0518 µM | 0.0162 µM | 0.119 µM and 0.0522 µM | 0.0946 µM | 0.00307 µM | 0.0226 µM and 0.187 µM | 0.0761 µM | 0.527 µM and 2.41 µM | – | – | –
2 | Clc1ccc(-c2nc3c(-c4ccc(Cl)cc4)nc(-c4ccccc4)cn3c2-c2ccc(Cl)cc2)cc1 | > 50 µM | > 50 µM | > 50 µM | > 50 µM | > 50 µM | 21 µM | > 50 µM | > 50 µM | 20.5 µM | > 50 µM | > 50 µM | > 50 µM | 29 µM | > 50 µM | > 50 µM | > 50 µM | > 50 µM | > 50 µM | > 50 µM | 11.1 µM
3 | COC(=O)CCC(NC(=S)N/N=C(\C)c1ccccn1)C(=O)OC (stereo not drawn) | – | – | > 100 µM | – | > 100 µM | – | > 100 µM | > 100 µM | – | > 100 µM | – | > 100 µM | > 100 µM | – | > 100 µM | – | > 100 µM | > 100 µM | – | –
4 | N#Cc1ccc(Oc2nccc(-c3c(-c4ccc(F)cc4)ncn3C3CCNCC3)n2)cc1 | 24.6 µM | > 25 µM | > 25 µM | 18.2 µM | > 25 µM | > 25 µM | > 25 µM | > 25 µM | > 25 µM | > 25 µM | > 16.4 µM | > 25 µM | > 25 µM | 5.85 µM | > 13.5 µM | > 22.7 µM | > 25 µM | > 25 µM | > 25 µM | 20.3 µM
5 | Cc1c2ccccc2c(C)c2c3c(ccc12)C(=O)C=CC3=O | – | – | 31.5 µM | – | > 67.6 µM | – | > 100 µM | > 85 µM | – | 55.5 µM | – | > 81.2 µM | 27.4 µM | – | > 63.4 µM | – | 41.5 µM | 43.1 µM | – | –
6 | CC(=O)OC1C=CC2CCN3C(=O)c4cc5c(cc4[C@H]1C23)OCO5 (stereo partly drawn) | – | – | > 100 µM | – | > 100 µM | – | > 100 µM | > 100 µM | – | > 100 µM | – | > 100 µM | > 100 µM | – | > 100 µM | – | > 100 µM | > 100 µM | – | –
7 | COc1cccc(Nc2nc(NNC(=O)Cc3ccccc3)nc(NNC(=O)c3ccncc3)n2)c1 | > 100 µM | > 100 µM | > 100 µM | – | > 100 µM | > 100 µM | > 100 µM | > 100 µM | > 100 µM | > 100 µM | – | > 100 µM | > 100 µM | – | > 100 µM | > 100 µM | > 100 µM | > 100 µM | > 100 µM | –
8 | CCN1CCC[C@H]1c1cc(O)c2c(c1OC)C[C@H]1C[C@H]3[C@H](N)C(=O)C(C(N)=O)=C(O)[C@@]3(O)C(=O)C1=C2O | 0.0709 µM | 0.0583 µM | 0.682 µM | 0.0998 µM | 13.2 µM | 0.0634 µM | 0.593 µM | 3.54 µM | 0.0419 µM | 4.95 µM | 0.0492 µM | 1.37 µM | 0.247 µM | 0.0386 µM | 1.23 µM | 0.126 µM | 2.11 µM | 5.25 µM | 0.203 µM | 0.0312 µM
9 | CCN1CCN(CCOc2ccc(CNc3ccc4nc(CCC5CCCCC5)[nH]c4c3)cc2)CC1 | 2 µM | 1.76 µM | 3.52 µM | 2.96 µM | 9.82 µM | 1.57 µM | 3 µM | 9.15 µM | 2.83 µM | 11 µM | 1.68 µM | 3.29 µM | 3.31 µM | 1.71 µM | 3.15 µM | 1.85 µM | 4.12 µM | 5.16 µM | 2.25 µM | 1.3 µM
10 | CCOP(=O)(CCP(=O)(OCC)OCC)OCC.C[CH2][Sn]([Cl])([Cl])[CH2]C | 38.8 µM | 30.4 µM | 50.9 µM | > 100 µM | > 100 µM | 34.9 µM | 52.1 µM | > 100 µM | > 100 µM | > 100 µM | 41.4 µM | > 57.8 µM | 30.1 µM | 22 µM | 47.9 µM | 28.5 µM | 59.3 µM | > 66.8 µM | > 100 µM | 15.3 µM
11 | COc1c(OC(C)=O)cc2c(OC(C)=O)c1CC(C)CC(OC)C(O)C(C)/C=C(\C)C(OC(N)=O)C(OC)/C=C\C=C(/C)C(=O)N2 (stereo not drawn) | – | – | > 100 µM | – | > 100 µM | – | > 100 µM | > 100 µM | – | > 100 µM | – | > 100 µM | > 100 µM | – | > 100 µM | – | > 100 µM | > 100 µM | – | –
12 | OC(c1ccccc1)(c1ccccc1)c1ccccn1 | – | – | > 100 µM | – | > 100 µM | – | > 100 µM | > 100 µM | – | > 100 µM | – | > 100 µM | > 100 µM | – | > 100 µM | – | > 100 µM | > 100 µM | – | –
13 | CCCc1cc(=O)oc2c(C(=O)CC(C)C)c(O)c(CC=C(C)C)c(O)c12 | 11.2 µM | 10.6 µM | 21.5 µM | 11 µM | > 50 µM | 9.8 µM | 44.2 µM | > 50 µM | 15.4 µM | > 50 µM | 10.3 µM | > 50 µM | 45.2 µM | 12.9 µM | > 50 µM | 5.89 µM | 29.9 µM | > 50 µM | 9.22 µM | 13.7 µM
14 | COc1ccc2c(=O)c([Se]c3coc4cc(OC)ccc4c3=O)coc2c1 | – | – | > 100 µM | – | > 100 µM | – | > 100 µM | > 100 µM | – | > 100 µM | – | 37.5 µM | > 100 µM | – | > 100 µM | – | > 100 µM | > 100 µM | – | –
15 | O=C1C2=C(C(=O)c3c(O)ccc(O)c31)N(c1ccc(N3CCOCC3)nc1)Cc1ccccc1O2 | 1.37 µM | 0.137 µM | 0.318 µM | 1.55 µM | 3.92 µM | 0.276 µM | 0.944 µM | 1.67 µM | 0.277 µM | 1.14 µM | 0.276 µM | 0.894 µM | 0.308 µM | 0.188 µM | 0.517 µM | 0.556 µM | 1.52 µM | 4.06 µM | 0.27 µM | 0.148 µM
